Laboratory results: patent publication EP2651946B1, “2-SUBSTITUTED IMIDAZOPYRAZINES FOR USE AS MPS-1 AND TKK INHIBITORS IN THE TREATMENT OF HYPERPROLIFERATIVE DISORDERS” (Bayer Intellectual Property GmbH, priority 2010, dated 2012)

What follows are compounds tested against T1, human kinase Mps-1 (Homo sapiens, UniProt P33981) (assay: Mps-1 kinase assay (TR-FRET)). Conditions: N-terminally GST-tagged human full length recombinant Mps-1; 10 µM ATP; 1 µM peptide substrate; 15 min pre-incubation, 60 min reaction at 22°C; read-out: Mps1 IC50.
T1 construct: N-terminally GST-tagged human full length recombinant Mps-1 kinase; purchased Invitrogen, Karslruhe, Germany PV4071
T1 sequence (P33981 1-857): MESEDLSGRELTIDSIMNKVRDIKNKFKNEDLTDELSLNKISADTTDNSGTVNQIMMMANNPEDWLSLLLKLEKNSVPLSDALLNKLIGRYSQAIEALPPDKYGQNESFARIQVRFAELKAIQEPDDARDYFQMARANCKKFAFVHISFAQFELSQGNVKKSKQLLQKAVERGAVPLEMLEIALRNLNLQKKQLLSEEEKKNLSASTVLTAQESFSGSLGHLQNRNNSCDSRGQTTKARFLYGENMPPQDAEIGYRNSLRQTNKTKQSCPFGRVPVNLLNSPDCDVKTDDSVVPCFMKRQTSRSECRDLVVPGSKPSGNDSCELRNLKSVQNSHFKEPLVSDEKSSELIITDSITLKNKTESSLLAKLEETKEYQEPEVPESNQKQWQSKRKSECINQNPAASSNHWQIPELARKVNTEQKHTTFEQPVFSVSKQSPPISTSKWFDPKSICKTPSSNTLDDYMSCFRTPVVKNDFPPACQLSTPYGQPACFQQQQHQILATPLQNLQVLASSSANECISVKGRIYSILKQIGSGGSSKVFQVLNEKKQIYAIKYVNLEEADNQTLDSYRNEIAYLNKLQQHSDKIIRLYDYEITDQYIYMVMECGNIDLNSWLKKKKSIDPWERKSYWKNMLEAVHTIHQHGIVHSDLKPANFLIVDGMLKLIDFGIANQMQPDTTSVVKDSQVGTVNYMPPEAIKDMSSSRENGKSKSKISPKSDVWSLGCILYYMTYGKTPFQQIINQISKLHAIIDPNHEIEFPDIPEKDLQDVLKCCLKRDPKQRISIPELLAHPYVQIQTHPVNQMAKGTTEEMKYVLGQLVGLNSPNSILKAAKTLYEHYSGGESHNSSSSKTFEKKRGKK
Format: biochemical
Description: The human kinase Mps-1 phosphorylates a biotinylated substrate peptide. Detection of the phosphorylated product is achieved by time-resolved fluorescence resonance energy transfer (TR-FRET) from Europium-labelled anti-phospho-Serine/Threonine antibody as donor to streptavidin labelled with cross-linked allophycocyanin (SA-XLent) as acceptor. Compounds are tested for their inhibition of the kinase activity.
N-terminally GST-tagged human full length recombinant Mps-1 kinase (purchased from Invitrogen, Karslruhe, Germany, cat. no PV4071) was used. As substrate for the kinase reaction a biotinylated peptide of the amino-acid sequence PWDPDDADITEILG (C-terminus in amide form, purchased from Biosynthan GmbH, Berlin) was used.
For the assay 50 nL of a 100-fold concentrated solution of the test compound in DMSO was pipetted into a black low volume 384well microtiter plate (Greiner Bio-One, Frickenhausen, Germany), 2 µl of a solution of Mps-1 in assay buffer [0.1 mM sodium-ortho-vanadate, 10 mM MgCl2, 2 mM DTT, 25 mM Hepes pH 7.7, 0.05% BSA, 0.001% Pluronic F-127] were added and the mixture was incubated for 15 min at 22°C to allow pre-binding of the test compounds to Mps-1 before the start of the kinase reaction. […]
The resulting mixture was incubated 1 h at 22°C to allow the binding of the phosphorylated peptide to the anti-phospho(Ser/Thr)-Europium-antibody. Subsequently the amount of phosphorylated substrate was evaluated by measurement of the resonance energy transfer from the Europium-labelled anti-phospho(Ser/Thr) antibody to the Streptavidin-XLent. Therefore, the fluorescence emissions at 620 nm and 665 nm after excitation at 350 nm was measured in a Viewlux TR-FRET reader (PerkinElmer LAS, Rodgau-Jugesheim, Germany). The "blank-corrected normalized ratio" ( a Viewlux specific readout, similar to the traditional ratio of the emissions at 665 nm and at 622 nm, in which blank and Eudonor crosstalk are subtracted from the 665 nm signal before the ratio is calculated) was taken as the measure for the amount of phosphorylated substrate. […]

Structure (SMILES)	IC50
CC(C)CNc1nc(-c2ccccc2)cn2c(-c3ccc(C(=O)NC4CC4)cc3)c(CO)nc12 [Example 1-1, N-cyclopropyl-4-[2-(hydroxymethyl)-8-(isobutylamino)-6-phenylimidazo[1,2-a]pyrazin-3-yl]benzamide]	178 nM
COC(=O)c1nc2c(NCC(C)C)nc(-c3ccccc3)cn2c1-c1ccc(C(=O)NC2CC2)cc1 [Example 3-1, Methyl 3-[4-(cyclopropylcarbamoyl)phenyl]-8-[(2-methylpropyl)amino]-6-phenylimidazo[1,2-a]pyrazine-2-carboxylate]	4250 nM
CC(C)CNc1nc(-c2ccccc2)cn2c(-c3ccc(C(=O)NC4CC4)cc3)c(N)nc12 [Example 4-1, 4-[2-Amino-8-(isobutylamino)-6-phenylimidazo[1,2-a]pyrazin-3-yl]-N-cyclopropylbenzamide]	16 nM
